Experimental data: paper PMC12531871, “Indole-2-carboxamides Optimization for Antiplasmodial Activity” (ACS Bio & Med Chem Au, 2025)
Converted amounts (≈) assume the structure as drawn. Where two headings read alike, the source gives them in different places.

How the values were obtained:
[1] = Human liver microsome stability; format: in vitro ADME; conditions: human, pooled human liver microsomes, human microsomal intrinsic clearance; read-out: hMics, human microsome Clint
Experimental: A solution of the test compounds in phosphate buffer solution (1 μM) was incubated in pooled human or mouse liver microsomes (0.5 mg/mL) for 0, 5, 20, 30, 45, and 60 min at 37 °C in the presence and absence of an NADPH regeneration system (NRS). The tests were conducted by […], India. The reaction was terminated with the addition of ice-cold acetonitrile, containing a […] standard, at designated time points. The sample was centrifuged (4200g) for 20 min at 20 °C and the supernatant was diluted by half in water and then analyzed by LC-MS/MS. The % parent compound remaining, half-life (t 1/2) and clearance (CLint) were calculated using standard methodology. The experiment was carried out in duplicate. Verapamil, diltiazem, phenacetin, and imipramine were used as reference standards.

[2] = Resazurin assay for cytotoxicity in HepG2 cells; format: cell-based, human; conditions: human, HepG2 cells; HepG2 cell line, 72 h, resazurin
Experimental: HepG2 cells were trypsinized, counted, and distributed in a 96-well plate at a density of 30,000 cells per well (180 μL). The plate was incubated at 37 °C and 5% CO2 for 24 h. Following incubation, 20 μL of serial dilutions of the tested compounds were added to the wells, with concentrations ranging from 30 to 0.47 μM. The plate was incubated for an additional 72 h at 37 °C and 5% CO2. Untreated cells served as positive controls, while wells containing only medium were used as negative controls. Postincubation, microscopy was employed to determine the highest compound concentration for treatment results. […] Concentration–response curves were generated, and half-maximal inhibitory concentration (CC50) values were determined using nonlinear regression analysis.

[3] = Rat hepatocyte stability; format: in vitro ADME; conditions: rat hepatocyte stability
Experimental: The reaction was terminated with the addition of ice-cold MeCN at designated time points. The samples were then centrifuged (4200 rpm) for 20 min at 20 °C, and the supernatant was half diluted in water and then analyzed using LCMS/MS. The % parent compound remaining, half-life (t 1/2), and clearance (CLint) were calculated using standard methodology. The experiment was carried out in duplicate. Diltiazem, 7-Ethoxy Coumarin, Propranolol, and Midazolam were used as reference standards.

[4] = Kinetic solubility at pH 7.4; format: physicochemical; conditions: phosphate-buffered saline, 25 °C, pH 7.4, aqueous buffer, kinetic from dmso stock; read-out: Kinetic solubility (Sol)
Experimental: Kinetic solubility assay was performed using UV–vis detection. […] The samples were filtered using a multiscreen solubility filter plate. The filtrate was diluted by 50% with MeCN. A five-point linearity curve was prepared in PBS/MeCN (1:1, v/v) at 200, 150, 75, 25, and 2.5 μM. Blank, linearity, and test samples (n = 2) were transferred to a UV-readable plate, and the plate was scanned for absorbance. Best-fit calibration curves were constructed using the calibration standards and used to determine the test sample solubility. The experiment was carried out in duplicate. Diethylstilbestrol, Haloperidol, and Diclofenac Sodium were used as reference standards.

[5] = eLogD at pH 7.4, miniaturized shake flask method; format: physicochemical; conditions: 1-octanol/PBS (1:1, v/v), pH 7.4, pH 7.4, miniaturized shake flask method
Experimental: eLogD at pH 7.4 was determined using a miniaturized shake flask method. A solution of a presaturated mixture of 1-octanol and phosphate-buffered saline (PBS) (1:1, v/v) and the test compound (75 μM) was incubated at 25 °C with constant shaking (850 rpm) for 2h. After incubation, the organic and aqueous phases were separated, and samples of each phase were transferred to a plate for dilution. […] The samples were quantitated using LC-MS/MS. The experiment was carried out in duplicate. Propranolol, Amitriptyline, and Midazolam were used as reference standards.

[6] = system: P. falciparum 3D7 strain (Pf3D7); assay: Antiplasmodial activity against P. falciparum 3D7 blood-stage parasites (SYBR Green, 72 h); format: cell-based, Plasmodium falciparum; conditions: for IC50: Plasmodium falciparum; for Pf3D7-IC50 compared to 6a: regio-isomers compared to 6a
[7] = system: P. falciparum K1 strain; assay: Antiplasmodial activity against resistant P. falciparum K1; format: cell-based; conditions: Plasmodium falciparum, 3D7 / K1; resistant K1, in parallel with 3D7; read-out: IC50^K1 ± SD
[8] = system: P. falciparum Dd2 strain; assay: Antiplasmodial activity against resistant P. falciparum Dd2; format: cell-based; conditions: Plasmodium falciparum, 3D7 / DD2; resistant Dd2, in parallel with 3D7; read-out: IC50^Dd2 ± SD
[9] = 3D7, 72 h, 3D7 strain, 72 h, SYBR Green, read-out: Pf3D7-IC50
[10] = 3D7 / DD2, sensitive 3D7, in parallel with K1 and Dd2, read-out: IC50^3D7 ± SD

microsomal CLint at 1 μM [1] [µL/min/mg]	R Heps (Clint) [3] [μL/min/10^6]	solubility kinetic at 2 h [4] [µM]	logD at 2 h [5]	IC50 [6, 9] [µM]	Compound	other results
–	–	–	–	8.3 ± 0.2	O=C(c1cc2ccccc2[nH]1)N(Cc1cccnc1)CC1CCNC1 (centres unmarked) [Compound 6b, N-(3-Pyridylmethyl)-N-(pyrrolidin-3-ylmethyl)-1H-indole-2-carboxamide]	–
4	60	> 1000	0.2	2.2 ± 0.3	O=C(c1cc2cccc(Cl)c2[nH]1)N(Cc1cccnc1)CC1CCNC1 (centres unmarked) [Compound 6c, 7-Chloro-N-(3-pyridylmethyl)-N-(pyrrolidin-3-ylmethyl)-1H-indole-2-carboxamide]	IC50 [7]: 4.9 ± 0.6 µM; IC50 [8]: 8.2 ± 0.3 µM; IC50 [6, 10]: 2.3 ± 0.6 µM
–	–	–	–	5.8	Cc1c(C(=O)N(Cc2cccnc2)CC2CCNC2)[nH]c2ccc(Cl)cc12 (centres unmarked) [Compound 6g, 5-Chloro-3-methyl-N-(3-pyridylmethyl)-N-(pyrrolidin-3-ylmethyl)-1H-indole-2-carboxamide]	IC50 [7]: 6.3 ± 0.3 µM; IC50 [8]: 9 ± 0.7 µM; IC50 [6, 10]: 4.2 ± 0.5 µM
–	–	–	–	> 10	O=C(c1c[nH]c2ccc(Cl)cc12)N(Cc1cccnc1)CC1CCNC1 (centres unmarked) [Compound 6h, 5-Chloro-N-(3-pyridylmethyl)-N-(pyrrolidin-3-ylmethyl)-1H-indole-3-carboxamide]	–
–	–	–	–	> 25	O=C(c1cccc(Cl)c1)N(Cc1cccnc1)CC1CCNC1 (centres unmarked) [Compound 6j, 3-Chloro-N-(pyridin-3-ylmethyl)-N-(pyrrolidin-3-ylmethyl)benzamide]	–
–	–	–	–	6.7 ± 0.3	O=C(c1cc2cc(Cl)ccc2[nH]1)N(Cc1ccccc1)CC1CCNC1 (centres unmarked) [Compound 6k, N-Benzyl-5-chloro-N-(pyrrolidin-3-ylmethyl)-1H-indole-2-carboxamide]	–
–	–	–	–	> 10	CS(=O)(=O)c1ccc(CN(CC2CCNC2)C(=O)c2cc3cc(Cl)ccc3[nH]2)cn1 (centres unmarked) [Compound 6p, 5-Chloro-N-[(6-methylsulfonyl-3-pyridyl)methyl]-N-(pyrrolidin-3-ylmethyl)-1H-indole-2-carboxamide]	–
–	–	–	–	> 10	CNCCN(CC1CCNC1)C(=O)c1cc2cc(Cl)ccc2[nH]1 (centres unmarked) [Compound 6q, 5-Chloro-N-[2-(methylamino)ethyl]-N-(pyrrolidin-3-ylmethyl)-1H-indole-2-carboxamide]	–
< 3	9	> 1000	0.5	0.9 ± 0.1	O=C(c1cc2cc(Cl)ccc2[nH]1)N(Cc1cccnc1)CC1CCNCC1 [Compound 6w, 5-Chloro-N-(4-piperidylmethyl)-N-(3-pyridylmethyl)-1H-indole-2-carboxamide]	–

Second part, the molecule before the results:

Compound	microsomal CLint at 1 μM [1] [µL/min/mg]	R Heps (Clint) [3] [μL/min/10^6]	solubility kinetic at 2 h [4] [µM]	logD at 2 h [5]	IC50 [6, 9] [µM]	other results
O=C(c1cc2cc(Cl)ccc2[nH]1)N(Cc1cccnc1)C[C@@H]1CCNC1 [6a (R), 5-Chloro-N-(3-pyridylmethyl)-N-[[(3R)-pyrrolidin-3-yl]methyl]-1H-indole-2-carboxamide]	10	8	196 (≈ 72.3 µg/mL)	0.7	1 ± 0.2	CC50 at 72 h [2]: > 30 µM
O=C(c1cc2cc(Cl)ccc2[nH]1)N(Cc1cccnc1)C[C@H]1CCNC1 [6a (S), 5-Chloro-N-(3-pyridylmethyl)-N-[[(3S)-pyrrolidin-3-yl]methyl]-1H-indole-2-carboxamide]	3	12	196 (≈ 72.3 µg/mL)	0.7	2 ± 0.4	CC50 at 72 h [2]: > 30 µM
O=C(c1cc2cc(Cl)ccc2[nH]1)N(Cc1cccnc1)CC1CCOC1 (centres unmarked) [Compound 5r, 5-Chloro-N-(pyridin-3-ylmethyl)-N-((tetrahydrofuran-3-yl)methyl)-1H-indole-2-carboxamide]	–	–	–	–	> 10	–
O=C1CC(CN(Cc2cccnc2)C(=O)c2cc3cc(Cl)ccc3[nH]2)CN1 (centres unmarked) [Compound 5s, 5-Chloro-N-[(5-oxopyrrolidin-3-yl)methyl]-N-(3-pyridylmethyl)-1H-indole-2-carboxamide]	–	–	–	–	> 10	–
O=C(c1cc2cc(F)ccc2[nH]1)N(Cc1cccnc1)CC1CCNC1 (centres unmarked) [Compound 6e, 5-Fluoro-N-(3-pyridylmethyl)-N-(pyrrolidin-3-ylmethyl)-1H-indole-2-carboxamide]	7	32	> 1000	-0.1	8.8 ± 0.1	–
O=C(c1nc2cc(Cl)ccc2[nH]1)N(Cc1cccnc1)CC1CCNC1 (centres unmarked) [Compound 6i, 5-Chloro-N-(3-pyridylmethyl)-N-(pyrrolidin-3-ylmethyl)-1H-benzimidazole-2-carboxamide]	–	–	–	–	> 10	–
O=C(c1cc2cc(Cl)ccc2[nH]1)N(Cc1ccncc1)CC1CCNC1 (centres unmarked) [Compound 6l, 5-Chloro-N-(4-pyridylmethyl)-N-(pyrrolidin-3-ylmethyl)-1H-indole-2-carboxamide]	–	–	–	–	12.8 ± 0.8	Pf3D7-IC50 compared to 6a [6]: > 10 fold
O=C(c1cc2cc(Cl)ccc2[nH]1)N(Cc1ccccn1)CC1CCNC1 (centres unmarked) [Compound 6m, 5-Chloro-N-(2-pyridylmethyl)-N-(pyrrolidin-3-ylmethyl)-1H-indole-2-carboxamide]	–	–	–	–	14.1 ± 0.6	Pf3D7-IC50 compared to 6a [6]: > 10 fold
O=C(c1cc2cc(Cl)ccc2[nH]1)N(Cc1cnccn1)CC1CCNC1 (centres unmarked) [Compound 6n, 5-Chloro-N-(pyrazin-2-ylmethyl)-N-(pyrrolidin-3-ylmethyl)-1H-indole-2-carboxamide]	–	–	–	–	> 10	–
O=C(c1cc2cc(Cl)ccc2[nH]1)N(Cc1ccc(C(F)(F)F)nc1)CC1CCNC1 (centres unmarked) [Compound 6o, 5-Chloro-N-(pyrrolidin-3-ylmethyl)-N-[[6-(trifluoromethyl)-3-pyridyl]methyl]-1H-indole-2-carboxamide]	3	10	883 (≈ 386 µg/mL)	1.5	4.3 ± 0.2	–
CNCCN(Cc1cccnc1)C(=O)c1cc2cc(Cl)ccc2[nH]1 [Compound 6u, 5-Chloro-N-[2-(methylamino)ethyl]-N-(3-pyridylmethyl)-1H-indole-2-carboxamide]	20	29	148 (≈ 50.7 µg/mL)	2.6	1.8 ± 0.2	–
O=C(c1cc2cc(Cl)ccc2[nH]1)N(Cc1cccnc1)C1CCNC1 (centres unmarked) [Compound 6v, 5-Chloro-N-(3-pyridylmethyl)-N-pyrrolidin-3-yl-1H-indole-2-carboxamide]	< 3	17	> 1000	0.9	0.57 ± 0.07	–
CN1CCC(CN(Cc2cccnc2)C(=O)c2cc3cc(Cl)ccc3[nH]2)C1 (centres unmarked) [Compound 7a, 5-Chloro-N-[(1-methylpyrrolidin-3-yl)methyl]-N-(pyridin-3-ylmethyl)-1H-indole-2-carboxamide]	20	28	190 (≈ 72.8 µg/mL)	1.6	0.46 ± 0.05	IC50 [7]: 1.2 ± 0.3 µM; IC50 [8]: 2.2 ± 0.3 µM; IC50 [6, 10]: 0.8 ± 0.2 µM
